According to patent publication US20070148710A1, “Cpt resistant cell line” (priority 2003, published 2007):
Values after ≈ are worked out from the molar mass of the structure shown.

Tests used:
Type in all cases: cell-based, human
SW948CPTH = test: cell proliferation assay, cross-resistance to topoisomerase I and II inhibitors; settings: for change in resistance of SW948CPTH cells compared to the parental cell line SW948: IC50 by cell proliferation assay (Table 3); for IC50: Homo sapiens, read-out: Sensitivity expressed as IC50
Description: (§1) Drug resistance to other topoisomerase I and II inhibitors was examined by determining the IC50 dose of each drug using a cell proliferation assay as shown in Table 3.

SW948 = test: as above; settings: SW948 parental, mean ± SD, 2-4 independent assays; for IC50: Homo sapiens, read-out: Sensitivity expressed as IC50
Description: as §1

SW948CPTH cells [1] = test: change of CPT-11 IC50 (clonogenic assay) by verapamil, amiloride or EIPA
Experimental: (§2) 10. […] Cells were washed, trypsinized, and counted. Cell pellets were lysed with water and sonicated. […] Results were generated from three independent experiments. […] Data are expressed as mean±SD. […] Data are the mean±SD of two experiments done in triplicate.
12. […] Cells were plated on glass coverslips and cultured overnight. Intracellular pH was measured with a fluorescence spectrophotometer after cells were loaded with the pH-sensitive fluorescence dye, BCECF. The data represent the mean±SD of 60 individual cells. […] After 24 h the drugs were removed, cells washed with PBS and drug-free culture medium added to the cell cultures. Data represent the mean±SD from three assays done in triplicate with SW948CPTH cells and two assays done in triplicate for SW948CPTL cells.

SW948CPTH cells [2] = test: intracellular accumulation of CPT-11 (HPLC), effect of verapamil; settings: SW948CPTH; 10 μM verapamil with CPT-11 160 μM, 2 hours
Description: as §2
(§3) Additionally, multidrug resistance can be evaluated by measuring the expression level of p-glycoprotein (p-gp) (Juliano et al Biochim Biophys Acta 11:152-162, 1976) and breast cancer resistant protein (BCRP) (Doyle et al Proc Natl Acad Sci U S A 95:15665-15670, 1998) in SW948 and the resistant SW948 cell lines (SW948CPTH and SW948CPTL). It is understood that the disclosed methods can also be used with other cell lines including other colon cancer cell lines. For example, the disclosed methods can be used with LS174T, WiDr, HT-29, SW403, DLD-1, SW480, SNU-C1, Caco-2, and COLO 205 cell lines.

SW948CPTL cells = test: as above; settings: SW948CPTL
Description: as §2, §3

SW948CPTL = test: cell proliferation assay, cross-resistance to topoisomerase I and II inhibitors
Description: as §1

SW948 cell line = test: SN38 IC50 determination
SW948CPTH cell line = test: SN38 IC50 determination
SW948CPTL cell line = test: SN38 IC50 determination
SW948CPTH cells [3] = test: intracellular pH (BCECF fluorescence)
Experimental: 12. […] Cells were plated on glass coverslips and cultured overnight.

`CC[C@@]1(O)C(=O)OCc2c1cc1n(c2=O)Cc2cc3cc(O)ccc3nc2-1` [10-OH-CPT] was tested, and the “change in resistance of SW948CPTH cells compared to the parental cell line SW948” value (from here on “change in resistance of SW948CPTH cells”) (SW948CPTH) was “increased resistance”, the “Sensitivity expressed as IC50” value (SW948CPTH; SW948CPTH treated with 20 μg/ml CPT-11 for 62 days, then >22 days without CPT-11, mean ± SD) was 2.1 ± 1.0 µg/mL and the “Sensitivity expressed as IC50” value (SW948) was 0.4 ± 0.3 µg/mL.

With `CCN(c1nc(N)c(C(=O)N=C(N)N)nc1Cl)C(C)C` [EIPA, 5-(N-ethyl-N-isopropyl)amiloride] the “effect on resistance of cells to CPT-11” value (SW948CPTH cells [1]; EIPA 3 or 10 μM with CPT-11 24 h, FIG. 8B covers SW948CPTH and SW948CPTL) was “decreased the resistance”.

`COc1ccc(CCN(C)CCCC(C#N)(c2ccc(OC)c(OC)c2)C(C)C)cc1OC` (stereo not drawn) [Verapamil] was tested, and the “effect on intracellular concentration of CPT-11” value (SW948CPTH cells [2]) was “increased the intracellular concentration of CPT-11 to a level similar to the SW948 parent cells”, the “intracellular concentration of CPT-11 with verapamil relative to SW948 parent cells” value (SW948CPTL cells; 10 μM verapamil) was 2.4 times and the “effect on intracellular concentration of CPT-11” value (SW948CPTL cells; 10 μM verapamil with CPT-11 160 μM, 2 hours) was “increased”.

With `COc1cc([C@@H]2c3cc4c(cc3[C@@H](O[C@@H]3O[C@@H]5CO[C@@H](C)O[C@H]5[C@H](O)[C@H]3O)[C@H]3COC(=O)[C@H]23)OCO4)cc(OC)c1O` [Etoposide] the IC50 (SW948CPTH) was 0.9 ± 0.1 µg/mL (≈ 1.53 µM), the “change in resistance of SW948CPTH cells” value (SW948CPTH) was “no change in resistance” and the IC50 (SW948) was 0.9 ± 0.1 µg/mL (≈ 1.53 µM). For the same compound, the IC50 (SW948CPTL; Homo sapiens, read-out: Sensitivity expressed as IC50) was 1.8 ± 0.3 µg/mL (≈ 3.06 µM) and the “increase in resistance by SW948CPTL cells compared to the parental cell line SW948” value (SW948CPTL; IC50 by cell proliferation assay (Table 3)) was 2 fold.

For `CCc1c2c(nc3ccc(O)cc13)-c1cc3c(c(=O)n1C2)COC(=O)[C@]3(O)CC` [SN38], the “SN38 IC50” value (SW948 cell line) was 0.2 ± 0.01 µg/mL, the “SN38 IC50” value (SW948CPTH cell line) was 1.5 ± 0.1 µg/mL and the “SN38 IC50” value (SW948CPTL cell line) was 1.8 ± 0.2 µg/mL.

In the case of `N=C(N)NC(=O)c1nc(Cl)c(N)nc1N` [Amiloride], the “effect on intracellular pH” value (SW948CPTH cells [3]) is reported as “lowered”, the “intracellular pH in the presence of amiloride” value (SW948CPTH cells [3]; from about 6.98 without amiloride (FIG. 8A)) is reported as “about 6.85” and the “effect on resistance of the cells to CPT-11” value (SW948CPTH cells [1]; SW948CPTH, amiloride 300 μM with CPT-11 24 h (FIG. 8B)) is reported as “decreased the resistance”.

With `CC[C@@]1(O)C(=O)OCc2c1cc1n(c2=O)Cc2cc3ccccc3nc2-1` [CPT] the IC50 (SW948CPTH) was 0.6 ± 0.6 µg/mL (≈ 1.72 µM), the “change in resistance of SW948CPTH cells” value (SW948CPTH) was “increased resistance” and the IC50 (SW948) was 0.1 ± 0.1 µg/mL (≈ 0.287 µM).

With `CC1(C)CCC2=C(O1)c1ccccc1C(=O)C2=O` [Lapachone] the IC50 (SW948CPTH) was 0.8 ± 0.2 µg/mL (≈ 3.3 µM), the “change in resistance of SW948CPTH cells” value (SW948CPTH) was “No change” and the IC50 (SW948) was 1.1 ± 0.2 µg/mL (≈ 4.54 µM).
